For this data set, the system named is mouse. Briefly: Acute toxicity after oral or intraperitoneal administration. The class given is in vivo. As to conditions: orally or intraperitoneally administered to a mouse at 1 g/kg.

agarose: the acute toxicity result is “No acute toxicity”.

Source of the values: patent publication US20050124575A1, “Remedies” (Takara Bio Inc., priority 2002, published 2005).
